The results in this text go back to patent publication US12030903B2, “Antiviral compounds” (Gilead Sciences, Inc., priority 2020, dated 2024).

SMILES strings stand for the structures. Like-named read-outs stand apart in the source and are kept apart here.

The test system of data set [1] is Dengue serotype 2 New Guinea C (NGC) strain. Put plainly: DENV-2 Huh-7 EC50 (qPCR of viral RNA in infected Huh7 cells). The format is cell-based. The conditions noted are these: MOI=0.1, 48 hours. In outline:
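Huh7 cells were infected 2 h at 37 °C with DENV-2 NGC at MOI 0.1, then plated with graded compound doses (0.25% DMSO) in triplicate for 48 h. Viral RNA was quantified by duplex TaqMan qPCR against GAPDH. EC50 was normalized to positive and no-compound controls.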
On the technique in general: Quantitative PCR measures a nucleic acid by following its amplification.

The subject of data set [2] is Dengue 2, New Guinea strain (NGC). Put plainly: DENV-2 moDC EC50 (qPCR of viral RNA in infected moDCs). It is filed as cell-based, New Guinea strain (NGC); human moDCs. The conditions noted are these: human moDCs infected with Dengue 2 NGC, MOI=0.1, 48 hours. The gist of the method:
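moDCs differentiated 7 days from CD14+ monocytes with GM-CSF/IL-4, infected with Vero-derived DENV-2 NGC at MOI 0.1 for 2 h at 37 °C, then plated in triplicate with graded compound doses (0.25% DMSO). At 48 h viral RNA quantified by duplex TaqMan qPCR against GAPDH; EC50 normalized to positive and no-compound controls.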

The nature of data set [3]: Huh-7 CC50 (CellTiter Glo viability). The format is cell-based, Human. The conditions noted are these: human, Huh7 hepatocarcinoma cells. The gist of the method: (§1)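 Huh7 cells in 10% FCS DMEM plated at 1-2×10^4 per well in triplicate with graded compound doses, 0.25% DMSO throughout. Viability after 48 hours by CellTiter Glo luminescence, normalized to no-compound and no-cell controls; CC50 from curve fitting.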
In general terms: ATP-based viability assays read luminescence as a measure of living cells.

A further data set has as its system RSV A2. Put plainly: RSV NHBE EC50 (RSV A2 antiviral assay in NHBE cells). It is filed as cell-based, RSV A2; normal human bronchial epithelial (NHBE) cells. The conditions noted are these: human respiratory syncytial virus, 96 h; NHBE cells infected with RSV A2, 4 days, Cell-Titer Glo. Here is the method:
Example 88. RSV NHBE EC50
Normal human bronchial epithelial (NHBE) cells were purchased from Lonza (Walkersville, MD, Cat #CC-2540) and cultured in Bronchial Epithelial Growth Media (BEGM) (Lonza, Walkersville, MID, Cat 9 CC-3170). The cells were passaged 1-2 times per week to maintain<80% confluency. The NHBE cells were discarded after 6 passages in culture.
To conduct the RSV A2 antiviral assay, NHBE cells were plated in 96-well plates at a density of 7,500 cells per well in BEGM and allowed to attach overnight at 37° C. Following attachment, 100 μL of cell culture media was removed and 3-fold serially diluted compound was added using a Hewlett-Packard D300 Digital Dispenser. The final concentration of DMSO was normalized to 0.05%. Following compound addition, the NHBE cells were infected by the addition of 100 μL of RSV A2 at a titer of […] tissue culture infectious doses/mL in BEGM and then incubated at 37° C. for 4 days. The NHBE cells were then allowed to equilibrate to 25° C. and cell viability was determined by removing 100 μL of culture medium and adding 100 μL of Cell-Titer Glo viability reagent. The mixtures were incubated for 10 minutes at 25° C., and the luminescence signal was quantified on an Envision luminescence plate reader.

A short description of data set [4]: HEp-2 CC50 (cytotoxicity in uninfected HEp-2 cells). It is filed as cell-based. The conditions noted are these: human, CellTiter Glo. Here is the method:
(§2) Instead, an uninfected cell mixture at the same density is added at 20 uL/well to plates containing prediluted compounds, also at 100 nL/sample. Assay plates are then incubated for 4 days followed by a cell viability test using the same CellTiter Glo reagent addition and measurement of luminescent readouts. Untreated cell and cells treated at 2 μM puromycin (Sigma, St. Louis, MO) serve as 100% and 0% cell viability control, respectively.

The next data set has as its system RSV strain A2. Put plainly: RSV HEp-2 EC50 (infectious cytopathic cell protection assay). The format is cell-based, RSV strain A2; HEp-2 cells. The conditions noted are these: read-out: RSV Hep-2 EC50. In outline: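 HEp-2 cells (50,000/mL) infected with titered RSV stock, added onto compound in 3-fold serial dilutions; 4 days at 37 °C. Cell viability read by CellTiter-Glo luminescence; percent inhibition of virus-induced cytopathic effect derived from remaining viability against 0% and 100% inhibition controls.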
Background: Damage to the host cells serves as the signal in cytopathic effect assays.

A short description of data set [5]: moDC CC50 (CellTiter Glo viability). The format is cell-based, Human. The conditions noted are these: human, uninfected moDCs.
For data set [6], the system named is Human hepatocarcinoma 7 (Huh7) cells. Put plainly: Huh-7 CC50 (CellTiter Glo viability). It is filed as cell-based. The conditions noted are these: 48 hours. The gist of the method: as §1
The test system of the next data set is uninfected HEp-2 cells. The data set can be described thus: HEp-2 CC50 (cytotoxicity in uninfected HEp-2 cells). It is filed as cell-based. The conditions noted are these: 4 days, CellTiter Glo. Here is the method: as §2
For data set [7], the system named is Human monocyte-derived dendritic cells (moDCs). The data set can be described thus: moDC CC50 (CellTiter Glo viability). The conditions noted are these: uninfected moDCs, 48 hours. It is filed as cell-based.
Another data set addresses T1, DENV2 NS5 (Dengue virus type 2, UniProt P14340).
T1 construct: His tag (pET28b, thrombin-cleavable) (N); made in house; host or cells: E. coli BL21 (DE3)
Put plainly: DENV Pol IC50 (DENV2-NS5 polymerase assay). The conditions noted are these: 100 nM DENV2 NS5, sshRNA template, 90 minutes at 30° C. It is filed as biochemical.

The mark [8] stands for this setting: Dengue virus, DENV2, Huh-7, Huh7 cells infected with Dengue serotype 2 NGC.
Setting [9] is: human respiratory syncytial virus, HEp-2, 96 h.
Setting [10] is: Huh7 cells infected with Dengue serotype 2 NGC.
Setting [11] is: HEp-2 cells infected with RSV A2, 4 days, Cell TiterGlo.

Method for DENV2 NS5: A 244 nucleotide secondary structureless heteropolymeric RNA (sshRNA) with sequence 5′-(UCAG)20(UCCAAG)14(UCAG)20-3′ (SEQ ID NO: 1) is used as the template with 5′-CUG-3′ primer in the DENV2-NS5 polymerase assay. Six two-fold dilutions of compounds starting from 200 nM and no inhibitor control are plated in 96-well plates. 100 nM DENV2 NS5 is preincubated for 5 minutes at room temperature in a reaction mixture containing 40 mM Tris-HCl (pH 7.5), 10 mM NaCl, 3 mM DTT, 0.2 unit/μL RNasin Plus RNase Inhibitor, 200 ng/μL sshRNA, 20 μM CUG and 2 mM MgCl2. Enzyme mix is added to compound dilutions and reactions initiated by the addition of a mixture containing 20 μM of three natural NTP plus 2 μM of analog:base matched competing natural NTP containing 1:100 α-33P-NTP. After 90 minutes at 30° C., 5 μL of the reaction mixtures are spotted on DE81 anion exchange paper. Filter papers are washed three times with Na2HPO4 (125 mM, pH 9) for 5 minutes, rinsed with water and ethanol, then air-dried and exposed to phosphorimager. Synthesized RNA is quantified using Typhoon Trio Imager and Image Quant TL Software and reaction rates are calculated by linear regression using GraphPad Prism 5.0. IC50 values are calculated in Prism by non-linear regression analysis using the dose-response (variable slope) equation (four-parameter logistic equation): Y=Bottom+(Top-Bottom)/(1+10^((Log IC50−X)*HillSlope)).

Broadly, the EC50 is the concentration needed to bring the measured effect to its halfway point. One may read the CC50 as the concentration giving 50% cytotoxicity. A low value points to greater toxicity to the cells. Turning to `COC(=O)[C@H](C)NP(=O)(OC[C@@]1(CF)O[C@@H](c2ccc3c(N)ncnn23)[C@H](OC(=O)C(C)C)[C@@H]1OC(=O)C(C)C)Oc1ccccc1` (single isomer, unassigned) [Example 11], the half-maximal effective concentration (EC50) in data set [1] (setting [8]) was 0.586 µM; in data set [2] (Dengue virus), 0.38 µM; in the data set with RSV A2 it was 0.367 µM; in the data set on RSV strain A2 (setting [9]) it was 2.04 µM. Besides, the CC50 at 48 h is greater than 18.8 µM in data set [3] and 16.1 µM in data set [5]. In addition, in data set [4], the CC50 at 4 days is 12.6 µM.

As for `C[C@H](NP(=O)(OC[C@@]1(CF)O[C@@H](c2ccc3c(N)ncnn23)[C@H](O)[C@@H]1O)Oc1ccccc1)C(=O)OCC(C)(C)C(F)(F)F` (single isomer, unassigned) [Example 54], the EC50 in data set [1] (setting [10]) was 0.409 µM; in data set [2], 0.241 µM; in the data set with RSV strain A2 (setting [11]), 0.18 µM. Moreover, the CC50 in data set [6] is greater than 25 µM; in the data set with uninfected HEp-2 cells, greater than 100 µM; in [7] it was 3.25 µM.

In the case of `C[C@H](NP(=O)(OC[C@@]1(CF)O[C@@H](c2ccc3c(N)ncnn23)[C@H](O)[C@@H]1O)Oc1ccccc1)C(=O)OCC(C)(C)C(F)(F)F` (single isomer, unassigned) [Example 55], the EC50 in [1] (setting [10]) stood at 0.611 µM; in [2], 0.103 µM; in the data set with RSV strain A2 (setting [11]) it was 0.15 µM. Besides, the figures for the CC50 (in data set [6]; with uninfected HEp-2 cells; in [7]) were greater than 25 µM, greater than 100 µM and 4.19 µM, respectively.

The term IC50 denotes the concentration at which inhibition is half-maximal. The molecule `Nc1ncnn2c([C@@H]3O[C@](CCl)(COP(=O)(O)OP(=O)(O)OP(=O)(O)O)[C@@H](O)[C@H]3O)ccc12` [Comp. Ex. 2, ((2R,3S,4R,5S)-5-(4-aminopyrrolo[2,1-f][1,2,4]triazin-7-yl)-2-(chloromethyl)-3,4-dihydroxytetrahydrofuran-2-yl)methyl tetrahydrogen triphosphate, reference compound] came in with an IC50 at DENV2 NS5 of 7.09 µM.

As to `CCC(CC)COC(=O)[C@H](C)N[P@](=O)(OC[C@@]1(CF)O[C@@H](c2ccc3c(N)ncnn23)[C@H](O)[C@@H]1O)Oc1ccccc1` [Example 1, 2-ethylbutyl ((S)-(((2R,3S,4R,5S)-5-(4-aminopyrrolo[2,1-f][1,2,4]triazin-7-yl)-2-(fluoromethyl)-3,4-dihydroxytetrahydrofuran-2-yl)methoxy)(phenoxy)phosphoryl)-L-alaninate], the half-maximal effective concentration (EC50) came out at 0.151 µM in data set [1] (setting [8]), 0.117 µM in data set [2] (Dengue virus), 0.595 µM in the data set on RSV A2 and 0.119 µM in the data set on RSV strain A2 (setting [9]). Also, the figures for the CC50 at 48 h in [3] and in data set [5] were 18 µM and greater than 5.89 µM, respectively. For the same molecule, the CC50 at 4 days in [4] was greater than 50 µM.

On DENV2 NS5, `Nc1ncnn2c([C@@H]3O[C@](CF)(COP(=O)(O)OP(=O)(O)OP(=O)(O)O)[C@@H](O)[C@H]3O)ccc12` [Example 2, sodium ((2R,3S,4R,5S)-5-(4-aminopyrrolo[2,1-f][1,2,4]triazin-7-yl)-2-(fluoromethyl)-3,4-dihydroxytetrahydrofuran-2-yl)methyl triphosphate] registered an IC50 of 0.737 µM.

Turning to `COC(=O)[C@H](C)NP(=O)(OC[C@@]1(CF)O[C@@H](c2ccc3c(N)ncnn23)[C@H](O)[C@@H]1O)Oc1ccccc1` (stereo partly drawn) [Example 10, methyl ((((2R,3S,4R,5S)-5-(4-aminopyrrolo[2,1-f][1,2,4]triazin-7-yl)-2-(fluoromethyl)-3,4-dihydroxytetrahydrofuran-2-yl)methoxy)(phenoxy)phosphoryl)-L-alaninate], the EC50 in [1] (setting [8]) was found to be 0.843 µM; in [2] (Dengue virus) it was 0.679 µM; with RSV A2 it was 2.11 µM; in the data set on RSV strain A2 (setting [9]), 0.909 µM. The CC50 at 48 h in data set [3] is greater than 25 µM; in data set [5], greater than 19.5 µM. The CC50 at 4 days in data set [4] was greater than 50 µM.

For the molecule `CCC(=O)O[C@H]1[C@H](c2ccc3c(N)ncnn23)O[C@](CF)(COP(=O)(N[C@@H](C)C(=O)OC2CCCCC2)Oc2ccccc2)[C@H]1OC(=O)CC` (stereo partly drawn) [Example 16, (2R,3S,4S,5S)-5-(4-aminopyrrolo[2,1-f][1,2,4]triazin-7-yl)-2-((((((S)-1-(cyclohexyloxy)-1-oxopropan-2-yl)amino)(Phenoxy)phosphoryl)oxy)methyl)-2-(fluoromethyl)tetrahydrofuran-3,4-diyl dipropionate], the EC50 in [1] (setting [10]) stood at 0.736 µM; in [2] it was 0.214 µM; in the data set on RSV strain A2 (setting [11]), 1.1 µM. Besides, the CC50 was 13.4 µM in [6], 33 µM in the data set on uninfected HEp-2 cells and 3.8 µM in data set [7].

`CCOC(=O)[C@H](C)NP(=O)(OC[C@@]1(CF)O[C@@H](c2ccc3c(N)ncnn23)[C@H](OC(C)=O)[C@@H]1OC(C)=O)Oc1ccccc1` (stereo partly drawn) [Example 21, (2R,3S,4S,5S)-5-(4-aminopyrrolo[2,1-f][1,2,4]triazin-7-yl)-2-((((((S)-1-ethoxy-1-oxopropan-2-yl)amino)(phenoxy)phosphoryl)oxy)methyl)-2-(fluoromethyl)tetrahydrofuran-3,4-diyl diacetate]: the results for the EC50 (in data set [1] (setting [10]); in [2]; with RSV strain A2 (setting [11])) were 3.06 µM, 1.04 µM and 1.78 µM, respectively. For the same molecule, the results for the CC50 (in data set [6]; with uninfected HEp-2 cells; in data set [7]) were greater than 25 µM, greater than 100 µM and greater than 17.3 µM, respectively.

Turning to `CCOC(=O)[C@H](C)NP(=O)(OC[C@@]1(CF)O[C@@H](c2ccc3c(N)ncnn23)[C@H](OC(=O)C(C)C)[C@@H]1OC(=O)C(C)C)Oc1ccccc1` (stereo partly drawn) [Example 24, (2R,3S,4S,5S)-5-(4-aminopyrrolo[2,1-f][1,2,4]triazin-7-yl)-2-((((((S)-1-ethoxy-1-oxopropan-2-yl)amino)(phenoxy)phosphoryl)oxy)methyl)-2-(fluoromethyl) tetrahydrofuran-3,4-diyl bis(2-methylpropanoate)], the EC50 in data set [1] (setting [10]) worked out at 1.56 µM; in data set [2], 0.257 µM; in the data set on RSV strain A2 (setting [11]), 1.83 µM. Besides, the CC50 came to 16 µM in data set [6], 16.6 µM in the data set on uninfected HEp-2 cells and 18.6 µM in data set [7].

On to `Nc1ncnn2c([C@@H]3O[C@@](CO)(CF)[C@@H](O)[C@H]3O)ccc12` [Intermediate 5, (2R,3S,4R,5S)-5-(4-aminopyrrolo[2,1-f][1,2,4]triazin-7-yl)-2-(fluoromethyl)-2-(hydroxymethyl)tetrahydrofuran-3,4-diol], for which the EC50 with RSV A2 was greater than 4.83 µM; in the data set on RSV strain A2 (setting [9]), greater than 50 µM. Besides, the CC50 at 4 days in data set [4] is greater than 50 µM.
